Reference: PMC2654246 (The Journal of neuroscience : the official journal of the …, 2009)
Marks after values point to notes of the source that are not given here.

Legend:
[1] = system: nAChR α-subunit single Cys mutants (αβγδ); details: 2 min, αA270C, αL273C, αI274C, αK276C, αY277C
αS268Cβγδ nAChR = αS268Cβγδ nAChR (Mus musculus, UniProt P02716+P04756+P04760, S288C); experiment: Effect of MTS reagent application on subsequent ACh induced current; type: cell-based; details: αS268C
αS269Cβγδ nAChR = αS269Cβγδ nAChR (Mus musculus, UniProt P02716+P04756+P04760, S289C); experiment: as above; type: cell-based; details: αS269C; MTSES 5 mM, 2 min; ACh EC30-70
αP272Cβγδ nAChR = αP272Cβγδ nAChR (Mus musculus, UniProt P02716+P04756+P04760, P292C); experiment: Rates of reaction of engineered Cys with MTSEA; type: cell-based; details: MTSEA with ACh (EC80-EC100)
αS266Cβγδ nAChR = αS266Cβγδ nAChR (Mus musculus, UniProt P02716+P04756+P04760, S286C); experiment: Rates of reaction of engineered Cys with MTSEA; type: cell-based
Chain of αS266Cβγδ nAChR (P04756 21-457 S286C): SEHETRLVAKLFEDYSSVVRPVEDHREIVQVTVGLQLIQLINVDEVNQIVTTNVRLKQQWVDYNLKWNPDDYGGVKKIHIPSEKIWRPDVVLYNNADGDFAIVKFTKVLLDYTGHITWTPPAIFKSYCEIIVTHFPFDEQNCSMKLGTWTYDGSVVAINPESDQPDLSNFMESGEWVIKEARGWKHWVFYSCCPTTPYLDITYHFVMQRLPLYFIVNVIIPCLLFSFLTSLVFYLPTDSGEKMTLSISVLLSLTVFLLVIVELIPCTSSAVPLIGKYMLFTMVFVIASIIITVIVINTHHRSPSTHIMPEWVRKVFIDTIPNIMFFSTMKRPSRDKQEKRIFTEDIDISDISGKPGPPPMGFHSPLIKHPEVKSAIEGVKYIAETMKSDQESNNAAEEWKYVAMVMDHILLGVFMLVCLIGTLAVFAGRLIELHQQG
Chain of αS266Cβγδ nAChR (P09690 24-501 partner): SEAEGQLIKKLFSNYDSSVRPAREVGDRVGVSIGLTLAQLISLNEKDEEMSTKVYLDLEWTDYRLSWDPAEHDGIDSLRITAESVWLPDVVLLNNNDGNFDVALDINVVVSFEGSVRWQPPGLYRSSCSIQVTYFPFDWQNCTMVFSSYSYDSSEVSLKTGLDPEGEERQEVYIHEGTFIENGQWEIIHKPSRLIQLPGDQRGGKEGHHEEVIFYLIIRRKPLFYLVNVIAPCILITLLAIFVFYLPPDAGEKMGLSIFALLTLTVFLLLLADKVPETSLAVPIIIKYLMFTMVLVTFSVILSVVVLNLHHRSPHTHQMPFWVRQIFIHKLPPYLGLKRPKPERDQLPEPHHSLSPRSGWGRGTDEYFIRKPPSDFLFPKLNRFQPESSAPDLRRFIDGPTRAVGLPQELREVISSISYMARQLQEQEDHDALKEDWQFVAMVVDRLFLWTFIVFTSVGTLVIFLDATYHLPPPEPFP
Chain of αS266Cβγδ nAChR (P04760 23-519): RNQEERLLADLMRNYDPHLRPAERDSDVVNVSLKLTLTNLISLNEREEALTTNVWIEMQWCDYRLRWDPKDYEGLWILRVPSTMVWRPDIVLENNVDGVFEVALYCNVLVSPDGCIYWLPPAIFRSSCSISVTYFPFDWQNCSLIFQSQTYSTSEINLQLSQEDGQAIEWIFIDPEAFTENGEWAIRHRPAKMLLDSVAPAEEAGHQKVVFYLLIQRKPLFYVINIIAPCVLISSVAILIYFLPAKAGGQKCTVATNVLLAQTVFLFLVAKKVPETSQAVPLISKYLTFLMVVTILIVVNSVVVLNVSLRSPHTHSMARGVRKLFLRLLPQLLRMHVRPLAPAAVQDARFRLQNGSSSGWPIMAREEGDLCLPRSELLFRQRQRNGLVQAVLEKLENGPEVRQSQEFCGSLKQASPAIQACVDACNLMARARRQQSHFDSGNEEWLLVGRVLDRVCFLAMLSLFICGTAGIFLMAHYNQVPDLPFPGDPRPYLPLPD
Chain of αS266Cβγδ nAChR (P02716 25-520, stated change not applied): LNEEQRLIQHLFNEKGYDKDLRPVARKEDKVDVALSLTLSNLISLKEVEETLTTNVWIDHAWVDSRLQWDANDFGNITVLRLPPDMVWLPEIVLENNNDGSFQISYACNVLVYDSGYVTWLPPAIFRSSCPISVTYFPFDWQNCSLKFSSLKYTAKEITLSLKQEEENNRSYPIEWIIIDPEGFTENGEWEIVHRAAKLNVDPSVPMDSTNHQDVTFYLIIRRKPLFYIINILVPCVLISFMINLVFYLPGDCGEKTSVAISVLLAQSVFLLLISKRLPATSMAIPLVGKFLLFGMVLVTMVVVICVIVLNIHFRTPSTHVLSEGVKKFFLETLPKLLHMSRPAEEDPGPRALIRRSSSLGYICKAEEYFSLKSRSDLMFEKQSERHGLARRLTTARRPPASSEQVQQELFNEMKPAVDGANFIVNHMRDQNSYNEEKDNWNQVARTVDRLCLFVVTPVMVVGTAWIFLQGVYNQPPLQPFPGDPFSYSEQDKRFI

αE262Cβγδ nAChR = αE262Cβγδ nAChR (Mus musculus, UniProt P02716+P04756+P04760, E282C); experiment: Rates of reaction of engineered Cys with MTSEA; type: cell-based; details: MTSEA with ACh (EC80-EC100)
αT267Cβγδ nAChR = αT267Cβγδ nAChR (Mus musculus, UniProt P02716+P04756+P04760, T287C); experiment: Rates of reaction of engineered Cys with MTSEA; type: cell-based; details: MTSEA with ACh (EC80-EC100)
αL263Cβγδ nAChR = αL263Cβγδ nAChR (Mus musculus, UniProt P02716+P04756+P04760+P09690, L283C); experiment: Rates of reaction of engineered Cys with MTSEA; type: cell-based; details: αL263C; MTSEA alone; component not specified, classed slow
αG275Cβγδ nAChR = αG275Cβγδ nAChR (Mus musculus, UniProt P02716+P04756+P04760, G295C); experiment: Rates of reaction of engineered Cys with MTSEA; type: cell-based; details: MTSEA with ACh (EC80-EC100)
αV271Cβγδ nAChR = αV271Cβγδ nAChR (Mus musculus, UniProt P02716+P04756+P04760, V291C); experiment: Rates of reaction of engineered Cys with MTSEA; type: cell-based; details: MTSEA with ACh (EC80-EC100)
αI264Cβγδ nAChR = αI264Cβγδ nAChR (Mus musculus, UniProt P02716+P04756+P04760, I284C); experiment: Rates of reaction of engineered Cys with MTSEA; type: cell-based; details: MTSEA with ACh (EC80-EC100)
αI274Cβγδ nAChR = αI274Cβγδ nAChR (Mus musculus, UniProt P02716+P04756+P04760, I294C); experiment: Rates of reaction of engineered Cys with MTSEA; type: cell-based; details: MTSEA with ACh (EC80-EC100)
αP265Cβγδ nAChR = αP265Cβγδ nAChR (Mus musculus, UniProt P02716+P04756+P04760, P285C); experiment: Rates of reaction of engineered Cys with MTSEA; type: cell-based; details: MTSEA with ACh (EC80-EC100)

Chain of αS268Cβγδ nAChR (P04756 21-457 S288C): as the sequence (P04756 21-457 S286C) above, with C266S, S268C counted along it
Chain of αS268Cβγδ nAChR (P09690 24-501 partner): as the sequence (P09690 24-501 partner) above
Chain of αS268Cβγδ nAChR (P04760 23-519): as the sequence (P04760 23-519) above
Chain of αS268Cβγδ nAChR (P02716 25-520): as the sequence (P02716 25-520, stated change not applied) above

Row | % increase of subsequent ACh induced current amplitude (αS268Cβγδ nAChR; MTSES 5 mM, 2 min, ACh EC30-70) [%] | % increase of subsequent ACh induced current amplitude (αS269Cβγδ nAChR) [%] | Compound | effect of MTSES application on ACh induced currents ([1]; MTSES 5 mM) | effect of MTSES applied after MTSEA on subsequent ACh induced currents (αS268Cβγδ nAChR; compared to MTSES applied alone) | τ in the presence of ACh, second order reaction rate constant (αP272Cβγδ nAChR) | τ, second order reaction rate constant (αS266Cβγδ nAChR; MTSEA applied in the absence of ACh) | τ in the presence of ACh, second order reaction rate constant (αS266Cβγδ nAChR; MTSEA with ACh (EC80-EC100)) | τ in the presence of ACh, second order reaction rate constant (αE262Cβγδ nAChR) | τ in the presence of ACh, second order reaction rate constant (αT267Cβγδ nAChR) | effect of MTSEA application on ACh induced currents ([1]; MTSEA 2 mM, absence of ACh, αS268C) | second-order rate constant (αL263Cβγδ nAChR) | reaction of MTSEA at this position (successive MTSEA then MTSES application) (αS268Cβγδ nAChR; MTSEA 2 mM, 2 min followed by MTSES 5 mM, 2 min on the same oocyte) | τ in the presence of ACh, second order reaction rate constant (αG275Cβγδ nAChR) [M⁻¹ s⁻¹] | τ in the presence of ACh, second order reaction rate constant (αV271Cβγδ nAChR) | τ in the presence of ACh, second order reaction rate constant (αI264Cβγδ nAChR) [M⁻¹ s⁻¹] | τ in the presence of ACh, second order reaction rate constant (αI274Cβγδ nAChR) | τ in the presence of ACh, second order reaction rate constant (αP265Cβγδ nAChR)
1 | 85 ± 12 | 177 ± 37 | CS(=O)(=O)SCCS(=O)(=O)[O-].[Na+] [MTSES, methanethiosulfonate ethylsulfonate] | no functional effect | similarly increased subsequent ACh induced currents |  |  |  |  |  |  |  |  |  |  |  |  | 
2 |  |  | CS(=O)(=O)SCCN [MTSEA, methanethiosulfonate ethylammonium] |  |  | 426 ± 66* M^-1s^-1 | 12,200 ± 2,200 M^-1s^-1 | 6,970 ± 1,800 M^-1s^-1 | 23,000 ± 2,100** M^-1s^-1 | 5,450 ± 86*** M^-1s^-1 | no effect | < 1,000 M^-1s^-1 | does not react at this position | 22.2 ± 3.3 | 398 ± 73*** M^-1s^-1 | 22.8 ± 6.5 | 8.7 ± 2.6*** M^-1s^-1 | 3,940 ± 620*** M^-1s^-1
